Measurements taken from PMC10557233, “Controlled release of Clenbuterol from a hydroxyapatite carrier for the treatment of Alzheimer’s Disease” (Biomaterials Research, 2023).
Where two headings read alike, the source gives them in different places.

Legend:
L929 cell line = assay: Biocompatibility by WST-1 assay (ISO 10993); type: cell-based
Procedure: The extracted supernatants were collected for subsequent experiments. Zinc diethyldithiocarbamate was used as a positive control and aluminum oxide was used as a negative control. After adding the WST-1 solution to the wells, the plate was incubated for 2 h, and the absorbance of each well was measured at 450 nm using a spectrophotometric plate reader (ELISA reader, Tecan Sunrise, Switzerland). The percentage of viable cells was calculated using the following equation:
Cell viability (%) = ((OD experiment - OD background) ×100)/ ((OD control - OD background))…(2).

Aβ42 peptides = target: T1, Aβ42 peptides (Homo sapiens, UniProt P05067); assay: Thioflavin T fluorescence assay and TEM of Aβ aggregation; type: biochemical
T1 construct: Aβ42 peptides were obtained from Peptide Institute, Inc; purchased Peptide Institute, Inc. (ASIA BIOSCIENCE Co., Ltd., Taiwan)
Procedure: Aβ42 peptides were obtained from Peptide Institute, Inc. (ASIA BIOSCIENCE Co., Ltd., Taiwan) and dissolved in hexafluoro-2-propanol (HFIP; Oakwood Products, Estill, SC, USA) to a final concentration of 1 mM for monomerization. The resulting solution was stored at − 80 °C. The monomerized peptides were resuspended in anhydrous DMSO (catalog number D-2650, Sigma) and diluted to a concentration of 100 µM using Dulbecco’s modified Eagle’s medium (DMEM, Sigma) before use. Aβ fibrils were formed by shaking the solution at 37 °C for 3 days. The morphology of the fibrils, with or without CLB incubation for 3 days, was observed using transmission electron microscopy (TEM). Samples were incubated with 1% uranyl acetate for 1 min before TEM.
The progression of amyloid β aggregation was tracked using thioflavin T (ThT), a fluorescent dye originally used to stain amyloid fibrils in histological samples. […] ThT fluorescence was measured at 25 °C using a spectrophotometric plate reader (ELISA reader, Tecan Sunrise, Switzerland) with an excitation filter at 450 nm and an emission filter at 482 nm, the computation of intensity was performed through the utilization of SoftMax Pro 7.0 software (Molecular Devices, CA, USA). After ThT binds to β-sheet aggregate structures, such as amyloid fibrils, its fluorescence emission changes, allowing the monitoring of amyloid β aggregation.

[1] = system: rats with AlCl3-induced AD; assay: Western blot of brain tissue for synapsin-1, synaptophysin, BACE1 and TNF-α; type: in vivo, SD rats; conditions: compared with the AD group
Procedure: (§1) The study used 60 male SD rats (BioLASCO, Taiwan; average age, 8 weeks). The study was approved by the Institutional Animal Care and Use Committee (No. 20,190,497) of National Taiwan University. CLB.HCl (Sigma-Aldrich C5423; Lot# BCBQ2163V) powder was stored at 4 °C and diluted in sterile 0.9% saline to a concentration of 20 µM based on the free base before injection. AlCl3 (7446-70-0, Sigma-Aldrich) was dissolved in normal saline before injection, and 70 mg/kg body weight of AlCl3 was administered intraperitoneally (i.p.) three times weekly for 8 weeks as previously described. […] After 8 weeks, several animal behavioral tests, histological staining, pharmacokinetics, and biochemical analyses were performed.

BV-2 microglial cells = assay: Western blot analysis of LPS-induced inflammation; type: cell-based
Procedure: LPS (L2880, Sigma) was dissolved in normal saline before injection. BV2 cells were seeded in 6-well plates at a density of 10^5 cells/well and cultured for 1 day to allow full adhesion. […] Subsequently, LPS (1 µg/mL) was added to induce inflammation for 24 h. The medium was then removed and the BV2 cells were washed three times with PBS. The cells were then lysed in 100 µL of ice-cold radioimmunoprecipitation assay buffer, and protein concentrations were quantified using the Bio-Rad protein assay. Equal amounts of proteins were electrophoresed on a 10% sodium dodecyl sulfate-polyacrylamide gel. The separated proteins were transferred onto nitrocellulose membranes and incubated with primary monoclonal mouse antibodies (BIOTOOLS Co., Ltd., Taipei, Taiwan) against IL-6 (1:1000), IL-1β (1:1000), TNF-α (1:1000), and β-actin (1:5000) overnight at 4 °C. Following incubation with the appropriate secondary antibody, the signals were analyzed using an imaging system (Bio-Rad).

[2] = system: rats with AlCl3-induced AD; assay: Morris water maze test in rats with AlCl3-induced AD; type: in vivo, SD rats; conditions: 6 mg/kg intramuscular weekly, 8 weeks
Procedure: as §1
This study used a circular pool partitioned into four quadrants, one of which contained an underwater platform. […] After four training sessions, the time taken by the rats to reach the escape platform was measured using EthoVision software (Noldus Information Technology, Wageningen, Netherlands). […] To evaluate spatial memory, the time taken by each rat to reach the platform from the starting position was recorded. On the contrary, working memory was assessed by determining the amount of time spent by the rat in the same quadrant (up to 120 s) but without a platform. The time spent in the quadrant without a platform was also recorded.

[3] = Plasma pharmacokinetics of CLB by LC-MS/MS after intramuscular administration; type: in vivo, SD rats
Procedure: as §1
LC-MS/MS was used to perform quantitative analysis using an LCMS8030 system (Shimadzu, Japan). We used the multiple reaction monitoring mode for mass spectrometric analysis, and the MS/MS parameters were optimized by flow injection analysis. Plasma samples were prepared using simple protein precipitation in methanol. The specificity of the method was tested by analyzing blank rat plasma, blank rat plasma spiked with clenbuterol-d9 (internal standard, IS), and plasma samples collected after CLB administration. A Thermo Hypersil Gold aQ C18 column (50 mm × 2.1 mm) with a particle size of 1.9 μm was used for separation. The mobile phase gradient consisted of (A) 2% methanol in pure water + 0.1% formic acid, and (B) methanol with 0.1% formic acid. The gradient elution was as follows: 30% B (0 min), 30% B (0.5 min), 98% B (2.5 min), 98% B (3.5 min), 30% B (4 min), and 30% B (5.5 min) at a flow rate of 300 µL/min, with a total run time of […]. A calibration curve was constructed using the plasma concentration of the quality control (QC) sample and the peak area ratio (y) of the QC sample to the IS. The linear calibration curves of CLB ranged from 0.5 to 200 ng/mL, with correlation coefficients over 0.99952. The injection volume of the final solution was 20 µL for the serum specimens. To evaluate the accuracy, precision, and extraction recovery of the assay, three sequential assays were performed with six replicates of QC samples (5, 50, and 500 ng/mL CLB) for each assay. QC samples were prepared from normal blank rat plasma at concentrations of 0.5, 2, 5, 20, 50, 200, and 500 ng/mL of CLB. The concentrations of the QC samples were calculated based on the calibration curve and compared with those of the control samples with the same concentration. For the brain sample homogenization procedures, a brain sample and an equivalent weight of 25% plasma solution were mixed in a 50 mL centrifuge tube and homogenized completely at 30,000 rpm on ice. The resulting homogenized solution was centrifuged and the supernatant was collected as a test sample. The test sample was filtered through a 0.2 μm GHP filter, and 200 µL of the sample mixture was transferred into a new 96-well 1 mL round collection plate and sealed. Finally, the samples were placed in an autosampler to be injected.

N2a cell line = assay: N2a cell viability versus concentration (IC50); type: cell-based; conditions: Mus musculus; N2a cells; called predicted IC50; read-out: IC50 (concentration at which 50% cell survival was observed)
[4] = Drug content in brain tissues by LC/MS/MS; type: in vivo, SD rats; conditions: male, SD, 6 mg/kg; rat brain homogenate, intramuscular injection; read-out: Concentration in brain tissues 24 h after injection
Procedure: as §1
LC-MS/MS was used to perform quantitative analysis using an LCMS8030 system (Shimadzu, Japan). We used the multiple reaction monitoring mode for mass spectrometric analysis, and the MS/MS parameters were optimized by flow injection analysis. Plasma samples were prepared using simple protein precipitation in methanol. The specificity of the method was tested by analyzing blank rat plasma, blank rat plasma spiked with clenbuterol-d9 (internal standard, IS), and plasma samples collected after CLB administration. […] The concentrations of the QC samples were calculated based on the calibration curve and compared with those of the control samples with the same concentration. […]

[5] = male, SD, im, rat plasma, 6 mg/kg intramuscular

T1 sequence (P05067 672-713 limits assumed): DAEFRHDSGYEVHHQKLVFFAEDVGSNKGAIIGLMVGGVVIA

Compound	cell viability / cytotoxicity (L929 cell line; L929 cells, day 3, WST-1, extract medium)	effect on Aβ aggregates (ThT fluorescence) (Aβ42 peptides; 10 µM Aβ incubated with 20 µM CLB)	effect on Aβ fibrils (TEM) (Aβ42 peptides; Aβ and CLB co-incubated for 3 days)	expression of synapsin-1 and synaptophysin in hippocampus [1]	protein expression levels of IL-1β, IL-6, and TNF-α (BV-2 microglial cells; LPS-induced BV-2 cells, western blot)	secretion of IL-1β, IL-6, and TNF-α (BV-2 microglial cells; LPS-stimulated BV-2 cells, 20 µM, vs LPS-treated control cells)	time to locate the escape platform (MWM) [2]	half-life ([3]; SD, rat, plasma, intramuscular, 6 mg/kg, rats)	AUC(0-inf) [3, 5]	Tmax [3, 5]	AUC(0-t) ([3]; male, SD, im, rat plasma, 6 mg/kg intramuscular, 0.5-168 hr)	Cmax ([3]; male, SD, rat, plasma, im, 6 mg/kg, rat plasma, 6 mg/kg intramuscular, read-out: Cmax)	Cmax ([3]; rat plasma, 6 mg/kg intramuscular, 6 mg/kg)	accumulation after multiple-dose administration ([3]; rats, repeated intramuscular dosing)	IC50 (N2a cell line)	concentration at 24 h [4]	cell viability / cytotoxicity (L929 cell line)
CC(C)(C)NCC(O)c1cc(Cl)c(N)c(Cl)c1 (centres unmarked) [CLB, Clenbuterol]	no notable disparities in cell viability	extensive fragmentation	disassembled amyloid plaques	significant increase	prominently reduced	significant inhibitory effects	did not exhibit a performance similar to that of the SHAP-CLB group	~30 h	5200 ± 4000 ng·h/mL	4 h	4890 ± 3740 ng·h/mL	120 ± 12.8 ng/mL	120.19 ng/mL	no apparent accumulation	20 µM	5.24 ± 1.81 ng/mL	–
Hydroxyapatite [HAP]	–	–	–	–	–	–	–	–	–	–	–	–	–	–	–	–	no notable disparities in cell viability
